Laboratory results from patent US10813906B2, “Use of ferrous amino acid chelate to treat infection by enteropathogen and to enhance growth performance” (Profeat Biotechnology Co., Ltd., priority 2018, dated 2020).

Legend:
[1] = Growth performance of postweaning piglets fed mixed feed for 8 weeks; assay type: in vivo; settings: for ADFI (average daily feed intake) / ADG (average daily gain) / FE (feed efficiency, ratio of ADFI to ADG) / Total feed intake: age 4 to 12 weeks; for Body weight: mean ± S.D.; for Total feed intake: whole group
From the text: About 1000 male piglets and 1000 female piglets (purchased from HAIFUNG ranch, Yunlin County, Taiwan and bred in the nursery) were used in the following experiment. The experimental piglets were randomly divided into an experimental group and a control group, and sufficient water and feed were supplied to the experimental piglets. […] The mixed feed supplied to the experimental group was made from the basal diet and the ferrous amino acid chelate prepared as described in the section, entitled “1. […] Subsequently, average daily gain (ADG) and average daily feed intake (ADFI) of the postweaning piglets in each group were calculated based on the body weight and the total feed intake. Feed efficiency (FE) defined as a ratio of ADFI to ADG was also calculated. The experimental data were expressed as mean±S.D., and were analyzed via Student's t-test so as to assess the difference between the test groups. Statistical significance is indicated by p<0.05.

[2] = Growth performance of chickens fed mixed feed for 12 weeks; assay type: in vivo, Taiwan black-feather country chickens; settings: for Body weight: mean ± S.D., 20 g of Fe per 1000 kg of mixed feed; for ADG (average daily gain) / FE (feed efficiency, ratio of total feed intake to total body weight): Week 12, 20 g of Fe per 1000 kg of mixed feed
From the text: The experimental chickens were randomly divided into a control group and an experimental group (n=40/group), and each group was placed in a pen with a size of 6.5 m^2. Water was provided ad libitum for all of the experimental chickens. […] The mixed feed supplied to the control group was made from a basal diet and a ferrous sulfate (20 g of Fe per 1000 kg of the mixed feed). The mixed feed supplied to the experimental group was made from the basal diet and the ferrous amino acid chelate prepared as described in the section, entitled “1. […] The body weight of each chicken was determined before and after supply of the mixed feed. Subsequently, average daily gain (ADG) of the chickens in each group was calculated based on the body weight and the feed intake. Feed efficiency (FE) defined as a ratio of total feed intake to total body weight was also calculated. The experimental data were analyzed via Student's t-test so as to assess the difference between the test groups. Statistical significance is indicated by p<0.05.

[3] = system: Clostridium perfringens; assay type: in vivo, Taiwan black-feather country chickens; settings: Week 6; feces from cloaca, real time PCR
[4] = system: Coccidia; assay: Coccidia infestation in chickens, microscopic observation of feces; assay type: in vivo, Taiwan black-feather country chickens; settings: Week 6
From the text: The experimental chickens were randomly divided into a control group and an experimental group (n=40/group), and each group was placed in a pen with a size of 6.5 m^2. Water was provided ad libitum for all of the experimental chickens. […] The mixed feed supplied to the control group was made from a basal diet and a ferrous sulfate (20 g of Fe per 1000 kg of the mixed feed). The mixed feed supplied to the experimental group was made from the basal diet and the ferrous amino acid chelate prepared as described in the section, entitled “1. […] Moreover, during supply of the mixed feed, fifteen chickens were randomly chosen at a designated time point to collect the feces from the cloaca thereof using cotton swabs. Coccidia infestation is determined by microscopic observation of the obtained feces sample.

[5] = system: Salmonella spp.; assay: Enteropathogen infection in chickens, real time PCR of feces: Salmonella spp.; assay type: in vivo, Taiwan black-feather country chickens; settings: Week 10, feces from cloaca
From the text: Taiwan black-feather country chickens (1 day of age) were purchased from Animal Research Farm in National Chia-Yi University (Taiwan), and were raised in a farm under the guidelines of Animal Care Committee of the Council of Agriculture, Taiwan. The experimental chickens were randomly divided into a control group and an experimental group (n=40/group), and each group was placed in a pen with a size of 6.5 m^2. Water was provided ad libitum for all of the experimental chickens.
Each of the experimental chickens was fed with a mixed feed for 12 weeks at a dose of 0.1 kg per day. The mixed feed supplied to the control group was made from a basal diet and a ferrous sulfate (20 g of Fe per 1000 kg of the mixed feed). The mixed feed supplied to the experimental group was made from the basal diet and the ferrous amino acid chelate prepared as described in the section, entitled “1. Preparation of ferrous amino acid chelate” of the “General Experimental Materials” (20 g of Fe per 1000 kg of the mixed feed).
Moreover, during supply of the mixed feed, fifteen chickens were randomly chosen at a designated time point to collect the feces from the cloaca thereof using cotton swabs.
In addition, the obtained feces were subjected to nucleic acid extraction with Taco™ DNA/RNA Extraction Kit (GeneReach Biotechnology Corp) according to the manufacturer's instructions. […]

[6] = system: Escherichia coli; assay: Enteropathogen infection in chickens, real time PCR of feces: Escherichia coli; assay type: in vivo, Taiwan black-feather country chickens; settings: Week 10, feces from cloaca
[7] = age 4 weeks (at weaning, start of the mixed feed)
[8] = age 12 weeks, after 8 weeks of mixed feed (basal diet:iron source 1000:1)
[9] = Week 0 (before supply of the mixed feed)

Substance	ADFI (average daily feed intake) [1] [kg/day per piglet]	ADG (average daily gain) [1] [kg/day per piglet]	FE (feed efficiency, ratio of ADFI to ADG) [1]	Body weight [1, 7] [kg]	Body weight [1, 8] [kg]	Total feed intake [1]	Body weight [2, 9] [g]	ADG (average daily gain) [2] [g/day per chicken]	FE (feed efficiency, ratio of total feed intake to total body weight) [2]	Body weight ([2]; Week 12 of mixed feed) [g]	Enteropathogen infection, Clostridium perfringens (percentage of infection among 15 selected chickens) [3] [%]	Enteropathogen infection, Coccidia (percentage of infection among 15 selected chickens) [4] [%]	Enteropathogen infection, Salmonella spp. (percentage of infection among 15 selected chickens) [5] [%]	Enteropathogen infection, Escherichia coli (percentage of infection among 15 selected chickens) [6] [%]
ferrous glycinate chelate [ferrous amino acid chelate]	0.78	0.40	1.93	9.08 ± 0.94	32.84 ± 4.01	36,500 kg	32.48 ± 3.49	25.44	3.59	2143.71 ± 250.23	0	33	53	27
ferrous sulfate	0.85	0.30	2.80	8.40 ± 1.17	28.00 ± 4.28	33,255 kg	31.06 ± 2.94	23.3	3.88	1965 ± 194.44	33	100	93	93
